Laboratory results from the NIST ThermoML archive (doi:10.1016/j.jct.2016.09.030).

Experiment: xn = mol fraction of the nth substance listed
Details: 100 kPa, Liquid; for viscosity: Concentric cylinders viscometry; for mass density: Vibrating tube method

CCOC(=O)CCC(=O)OCC [diethyl butanedioate] + CC(C)CCO
Details | mass density [kg/m3] | viscosity [mPa·s]
288.15 K, x1 = 0.1 | 845.17 | 3.582
288.15 K, x1 = 0.2 | 875.25 | 3.029
288.15 K, x1 = 0.3 | 902.72 | 2.76
288.15 K, x1 = 0.3999 | 927.82 | 2.625
288.15 K, x1 = 0.5 | 951.1 | 2.58
288.15 K, x1 = 0.5999 | 972.64 | 2.6
288.15 K, x1 = 0.7 | 992.67 | 2.667
288.15 K, x1 = 0.7999 | 1011.24 | 2.808
288.15 K, x1 = 0.9002 | 1028.55 | 2.943
288.15 K, x1 = 1 | 1044.83 | 3.195
293.15 K, x1 = 0.1 | 841.19 | 3.097
293.15 K, x1 = 0.2 | 871.04 | 2.621
293.15 K, x1 = 0.3 | 898.32 | 2.396
293.15 K, x1 = 0.3999 | 923.26 | 2.283
293.15 K, x1 = 0.5 | 946.4 | 2.25
293.15 K, x1 = 0.5999 | 967.82 | 2.271
293.15 K, x1 = 0.7 | 987.73 | 2.332
293.15 K, x1 = 0.7999 | 1006.2 | 2.455
293.15 K, x1 = 0.9002 | 1023.43 | 2.573
293.15 K, x1 = 1 | 1039.63 | 2.807
298.15 K, x1 = 0.1 | 837.19 | 2.712
298.15 K, x1 = 0.2 | 866.82 | 2.321
298.15 K, x1 = 0.3 | 893.91 | 2.139
298.15 K, x1 = 0.3999 | 918.7 | 2.053
298.15 K, x1 = 0.5 | 941.69 | 2.025
298.15 K, x1 = 0.5999 | 962.98 | 2.048
298.15 K, x1 = 0.7 | 982.79 | 2.103
298.15 K, x1 = 0.7999 | 1001.17 | 2.207
298.15 K, x1 = 0.9002 | 1018.32 | 2.308
298.15 K, x1 = 1 | 1034.44 | 2.491
303.15 K, x1 = 0.1 | 833.18 | 2.377
303.15 K, x1 = 0.2 | 862.59 | 2.056
303.15 K, x1 = 0.3 | 889.5 | 1.905
303.15 K, x1 = 0.3999 | 914.12 | 1.834
303.15 K, x1 = 0.5 | 936.98 | 1.817
303.15 K, x1 = 0.5999 | 958.15 | 1.838
303.15 K, x1 = 0.7 | 977.86 | 1.889
303.15 K, x1 = 0.7999 | 996.14 | 1.981
303.15 K, x1 = 0.9002 | 1013.2 | 2.069
303.15 K, x1 = 1 | 1029.25 | 2.229
308.15 K, x1 = 0.1 | 829.15 | 2.096
308.15 K, x1 = 0.2 | 858.35 | 1.831
308.15 K, x1 = 0.3 | 885.07 | 1.707
308.15 K, x1 = 0.3999 | 909.54 | 1.65
308.15 K, x1 = 0.5 | 932.26 | 1.638
308.15 K, x1 = 0.5999 | 953.31 | 1.661
308.15 K, x1 = 0.7 | 972.91 | 1.707
308.15 K, x1 = 0.7999 | 991.1 | 1.789
308.15 K, x1 = 0.9002 | 1008.09 | 1.868
308.15 K, x1 = 1 | 1024.08 | 2.008
313.15 K, x1 = 0.1 | 825.09 | 1.867
313.15 K, x1 = 0.2 | 854.08 | 1.649
313.15 K, x1 = 0.3 | 880.62 | 1.547
313.15 K, x1 = 0.3999 | 904.94 | 1.502
313.15 K, x1 = 0.5 | 927.52 | 1.496
313.15 K, x1 = 0.5999 | 948.47 | 1.518
313.15 K, x1 = 0.7 | 967.97 | 1.562
313.15 K, x1 = 0.7999 | 986.08 | 1.635
313.15 K, x1 = 0.9002 | 1002.99 | 1.706
313.15 K, x1 = 1 | 1018.9 | 1.821
318.15 K, x1 = 0.1 | 821.01 | 1.656
318.15 K, x1 = 0.2 | 849.79 | 1.475
318.15 K, x1 = 0.3 | 876.16 | 1.391
318.15 K, x1 = 0.3999 | 900.33 | 1.356
318.15 K, x1 = 0.5 | 922.78 | 1.354
318.15 K, x1 = 0.5999 | 943.61 | 1.377
318.15 K, x1 = 0.7 | 963.02 | 1.419
318.15 K, x1 = 0.7999 | 981.04 | 1.485
318.15 K, x1 = 0.9002 | 997.88 | 1.549
318.15 K, x1 = 1 | 1013.72 | 1.66
323.15 K, x1 = 0.1 | 816.9 | 1.496
323.15 K, x1 = 0.2 | 845.48 | 1.346
323.15 K, x1 = 0.3 | 871.68 | 1.271
323.15 K, x1 = 0.3999 | 895.7 | 1.247
323.15 K, x1 = 0.5 | 918.03 | 1.243
323.15 K, x1 = 0.5999 | 938.75 | 1.27
323.15 K, x1 = 0.7 | 958.06 | 1.308
323.15 K, x1 = 0.7999 | 975.99 | 1.369
323.15 K, x1 = 0.9002 | 992.76 | 1.428
323.15 K, x1 = 1 | 1008.55 | 1.523

CCOC(=O)CCC(=O)OCC [diethyl butanedioate] + CC(C)CO
Details | mass density [kg/m3] | viscosity [mPa·s]
288.15 K, x1 = 0.0999 | 844.65 | 3.284
288.15 K, x1 = 0.2 | 878.53 | 2.763
288.15 K, x1 = 0.3001 | 908.28 | 2.542
288.15 K, x1 = 0.4 | 934.67 | 2.473
288.15 K, x1 = 0.4999 | 958.02 | 2.477
288.15 K, x1 = 0.5999 | 978.97 | 2.546
288.15 K, x1 = 0.6999 | 997.81 | 2.625
288.15 K, x1 = 0.8 | 1014.88 | 2.774
288.15 K, x1 = 0.9 | 1030.48 | 2.962
288.15 K, x1 = 1 | 1044.83 | 3.195
293.15 K, x1 = 0.0999 | 840.5 | 2.816
293.15 K, x1 = 0.2 | 874.13 | 2.403
293.15 K, x1 = 0.3001 | 903.71 | 2.23
293.15 K, x1 = 0.4 | 929.94 | 2.177
293.15 K, x1 = 0.4999 | 953.16 | 2.186
293.15 K, x1 = 0.5999 | 974.02 | 2.249
293.15 K, x1 = 0.6999 | 992.78 | 2.32
293.15 K, x1 = 0.8 | 1009.79 | 2.45
293.15 K, x1 = 0.9 | 1025.33 | 2.611
293.15 K, x1 = 1 | 1039.63 | 2.807
298.15 K, x1 = 0.0999 | 836.33 | 2.443
298.15 K, x1 = 0.2 | 869.73 | 2.108
298.15 K, x1 = 0.3001 | 899.12 | 1.973
298.15 K, x1 = 0.4 | 925.2 | 1.931
298.15 K, x1 = 0.4999 | 948.31 | 1.947
298.15 K, x1 = 0.5999 | 969.07 | 2.004
298.15 K, x1 = 0.6999 | 987.75 | 2.073
298.15 K, x1 = 0.8 | 1004.7 | 2.184
298.15 K, x1 = 0.9 | 1020.18 | 2.322
298.15 K, x1 = 1 | 1034.44 | 2.491
303.15 K, x1 = 0.0999 | 832.13 | 2.135
303.15 K, x1 = 0.2 | 865.31 | 1.866
303.15 K, x1 = 0.3001 | 894.51 | 1.756
303.15 K, x1 = 0.4 | 920.45 | 1.73
303.15 K, x1 = 0.4999 | 943.44 | 1.747
303.15 K, x1 = 0.5999 | 964.11 | 1.802
303.15 K, x1 = 0.6999 | 982.72 | 1.864
303.15 K, x1 = 0.8 | 999.6 | 1.964
303.15 K, x1 = 0.9 | 1015.04 | 2.084
303.15 K, x1 = 1 | 1029.25 | 2.229
308.15 K, x1 = 0.0999 | 827.9 | 1.875
308.15 K, x1 = 0.2 | 860.85 | 1.659
308.15 K, x1 = 0.3001 | 889.88 | 1.574
308.15 K, x1 = 0.4 | 915.68 | 1.557
308.15 K, x1 = 0.4999 | 938.56 | 1.576
308.15 K, x1 = 0.5999 | 959.14 | 1.629
308.15 K, x1 = 0.6999 | 977.68 | 1.686
308.15 K, x1 = 0.8 | 994.51 | 1.775
308.15 K, x1 = 0.9 | 1009.9 | 1.882
308.15 K, x1 = 1 | 1024.08 | 2.008
313.15 K, x1 = 0.0999 | 823.63 | 1.657
313.15 K, x1 = 0.2 | 856.36 | 1.484
313.15 K, x1 = 0.3001 | 885.22 | 1.418
313.15 K, x1 = 0.4 | 910.89 | 1.409
313.15 K, x1 = 0.4999 | 933.67 | 1.43
313.15 K, x1 = 0.5999 | 954.16 | 1.48
313.15 K, x1 = 0.6999 | 972.64 | 1.534
313.15 K, x1 = 0.8 | 989.42 | 1.614
313.15 K, x1 = 0.9 | 1004.76 | 1.71
313.15 K, x1 = 1 | 1018.9 | 1.821
318.15 K, x1 = 0.0999 | 819.31 | 1.471
318.15 K, x1 = 0.2 | 851.84 | 1.334
318.15 K, x1 = 0.3001 | 880.53 | 1.283
318.15 K, x1 = 0.4 | 906.08 | 1.281
318.15 K, x1 = 0.4999 | 928.76 | 1.304
318.15 K, x1 = 0.5999 | 949.18 | 1.352
318.15 K, x1 = 0.6999 | 967.59 | 1.403
318.15 K, x1 = 0.8 | 984.32 | 1.476
318.15 K, x1 = 0.9 | 999.62 | 1.562
318.15 K, x1 = 1 | 1013.72 | 1.66
323.15 K, x1 = 0.0999 | 814.95 | 1.324
323.15 K, x1 = 0.2 | 847.28 | 1.218
323.15 K, x1 = 0.3001 | 875.82 | 1.175
323.15 K, x1 = 0.4 | 901.24 | 1.18
323.15 K, x1 = 0.4999 | 923.83 | 1.201
323.15 K, x1 = 0.5999 | 944.18 | 1.249
323.15 K, x1 = 0.6999 | 962.54 | 1.3
323.15 K, x1 = 0.8 | 979.22 | 1.366
323.15 K, x1 = 0.9 | 994.48 | 1.438
323.15 K, x1 = 1 | 1008.55 | 1.523
